Drawing on ChEMBL document CHEMBL1138135, “L-dopa- and dopamine-(R)-alpha-lipoic acid conjugates as multifunctional codrugs with antioxidant properties” (J Med Chem, 2006), this text covers logP, solubility and Activity for 4 compounds.

Series [1] is described as follows: Partition co-efficient, log P of the compound. The series is classed as physicochemical. As to conditions: octanol/water.
Series [2] in a line: Solubility in water. The series is classed as physicochemical.
A short description of series [3]: Aqueous solubility at pH 1.3. The series is classed as physicochemical. Conditions: buffer.
A short description of series [4]: Aqueous solubility at pH 7.4. The series is classed as physicochemical. As to conditions: buffer.
Series [5] is described as follows: Aqueous solubility at pH 5.0. The series is classed as physicochemical. Conditions: buffer.
Series [6] has as its system Rattus norvegicus. Put plainly: Increase in plasmatic Glutathione peroxidase activity after 1 hr of administration of 160.54 mg/kg to Wistar rats. The series is classed as functional, organism-based. The arrangement: dose 160.54 mg/kg.
The subject of series [7] is Rattus norvegicus. Put plainly: Decrease in plasmatic superoxide dismutase activity after 1 hr and 3 hrs of administration of 160.54 mg/kg to Wistar rats. The series is classed as functional, organism-based. Details: dose 160.54 mg/kg.
Series [8] deals with Rattus norvegicus. Put plainly: Decrease in grooming behavior of Wistar rats after 1 hr of administration of 160.54 mg/kg. The series is classed as functional, organism-based. Details: dose 160.54 mg/kg.
Series [9] relates to Rattus norvegicus. Put plainly: Decrease in plasmatic superoxide dismutase activity after 1 hr and 3 hrs of administration of 132.64 mg/kg to Wistar rats. The series is classed as functional, organism-based. The arrangement: dose 132.64 mg/kg.
Series [10] relates to Rattus norvegicus. Put plainly: Increase in plasmatic Glutathione peroxidase activity after 3 hrs of administration of 132.64 mg/kg to Wistar rats. The series is classed as functional, organism-based. The arrangement: dose 132.64 mg/kg.
For series [11], the system named is Rattus norvegicus. Put plainly: Increase in plasmatic Glutathione peroxidase activity after 1 hr of administration of 132.64 mg/kg to Wistar rats. Details: dose 132.64 mg/kg. The series is classed as functional, organism-based.
Series [12] concerns Rattus norvegicus. Put plainly: Decrease in grooming behavior of Wistar rats after 2 hrs of administration of 132.64 mg/kg. The series is classed as functional, organism-based. Details: dose 132.64 mg/kg.

Converted amounts (≈) assume the structure as drawn. The source made the active and inactive calls. The calls are words filed in the database; no cut-off is given here.

What is called logP is a log measure of how a compound divides between an organic and an aqueous phase. The low end stands for a more hydrophilic compound, the high end for a more lipophilic compound. As a reminder, the solubility is how much of the substance goes into solution per volume. Low readings indicate a poorly soluble substance, high ones a readily soluble substance. Regarding `CC(=O)Oc1ccc(CCNC(=O)CCCC[C@@H]2CCSS2)cc1OC(C)=O`, the logP in [1] amounted to 3.65. The solubility is 49 µg/mL (≈ 115 µM) in [2], 0.47 µg/mL (≈ 1.1 µM) in [3], 52 µg/mL (≈ 122 µM) in [4] and 47 µg/mL (≈ 110 µM) in series [5].
In turn, `O=C(CCCC[C@@H]1CCSS1)NCCc1ccc(O)c(O)c1` gave a logP in series [1] of 3.4. The solubility is 0.36 µg/mL (≈ 1.05 µM) in series [2], 0.87 µg/mL (≈ 2.55 µM) in [3] and 1.1 µg/mL (≈ 3.22 µM) in series [4].
For `COC(=O)[C@H](Cc1ccc(OC(C)=O)c(OC(C)=O)c1)NC(=O)CCCC[C@@H]1CCSS1`, in [1], the logP was 2.77. Further, the solubility in [2] was 233 µg/mL (≈ 482 µM); in [3], 39 µg/mL (≈ 80.6 µM); in [4] it was 38 µg/mL (≈ 78.6 µM); in [5], 24 µg/mL (≈ 49.6 µM). For the same compound, the result in series [6], in series [7] and in series [8] was Active.
`COC(=O)[C@H](Cc1ccc(O)c(O)c1)NC(=O)CCCC[C@@H]1CCSS1`: the result in series [9], in series [10], in series [11] and in series [12] was Active. This compound also returned a logP in series [1] of 2.16. In addition, the solubility in [2] came out at 12 µg/mL (≈ 30 µM); in series [4] it was 13 µg/mL (≈ 32.5 µM); in series [5] it was 11 µg/mL (≈ 27.5 µM).
